One may read the IC50 as the concentration at which inhibition is half-maximal.

Test [1] has as its target T1, Human Indoleamine 2,3-dioxygenase (IDO) (Homo sapiens, UniProt P14902).
T1 construct: His tag (N); made in house; host or cells: E. coli
As to the kind of experiment: Human IDO enzymatic assay (kynurenine level). The following applies: 6 nM IDO, 10 μM L-Trp; geometric mean; read-out: IDO1 GMean: IC50 (μM) (Biochemical Assay). It counts as biochemical. In short, it runs like this: (§1)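 N-terminally His-tagged enzymes expressed in E. coli were run in 50 mM sodium phosphate pH 6.5 with 10 mM ascorbate, catalase and Tween 20. IDO: 6 nM enzyme, 10 μM L-Trp, 5 μM methylene blue, 20 min RT. TDO: 1 nM enzyme, 350 μM L-Trp, 0.4 μM methylene blue, 70 min RT.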

Test [2] deals with T2, Human Tryptophan 2,3-dioxygenase (TDO) (Homo sapiens, UniProt P48775).
T2 construct: His tag (N); made in house; host or cells: E. coli
As to the kind of experiment: Human TDO enzymatic assay (kynurenine level). Format: biochemical. The following applies: 1 nM TDO, 350 μM L-Trp; geometric mean; read-out: TDO GMean: IC50 (μM) (Biochemical Assay). In short, it runs like this:
as §1

In test [3] the target is T3, human IDO (IDO1-expressing HEK293 cells) (Homo sapiens, UniProt P14902).
T3 construct: expressed in transfected cells
As to the kind of experiment: Cell based kynurenine assay, IDO1-expressing HEK293 cell clones. The conditions noted are these: IDO1-expressing HEK293 cells, 24 hours incubation; geometric mean; read-out: HEK293 IDO1 Kynurenine GMean IC50 (μM) (Cellular Assay). The essentials: (§2)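 HEK293 stable clones (hIDO1 or hTDO, CMV-driven; G418-selected); 2.5×10^4 cells/well; compound serial dilution, 24 h, 37 °C, 5% CO2; supernatant kynurenine; IC50 by nonlinear fit.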

Test [4] deals with T4, human TDO (TDO-expressing HEK293 cells) (Homo sapiens, UniProt P48775).
T4 construct: expressed in transfected cells
As to the kind of experiment: Cell based kynurenine assay, TDO-expressing HEK293 cell clones. The following applies: TDO-expressing HEK293 cells, 24 hours incubation; geometric mean; read-out: HEK293 TDO Kynurenine GMean IC50 (μM) (Cellular Assay). The essentials: as §2

T2 sequence (P48775 whole entry): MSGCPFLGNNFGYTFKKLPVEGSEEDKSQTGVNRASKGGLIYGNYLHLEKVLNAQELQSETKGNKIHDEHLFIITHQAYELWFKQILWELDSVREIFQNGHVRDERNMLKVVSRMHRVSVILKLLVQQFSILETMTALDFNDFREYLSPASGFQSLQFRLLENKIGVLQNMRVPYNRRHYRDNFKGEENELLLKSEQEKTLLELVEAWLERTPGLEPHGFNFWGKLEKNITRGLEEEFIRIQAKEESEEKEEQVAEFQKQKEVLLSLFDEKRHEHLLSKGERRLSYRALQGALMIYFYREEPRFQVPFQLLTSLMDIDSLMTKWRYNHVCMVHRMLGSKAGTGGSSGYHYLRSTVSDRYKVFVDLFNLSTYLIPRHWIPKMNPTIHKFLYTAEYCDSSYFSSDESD
T4 sequence (P48775 whole entry): as above
T1 sequence (P14902 whole entry): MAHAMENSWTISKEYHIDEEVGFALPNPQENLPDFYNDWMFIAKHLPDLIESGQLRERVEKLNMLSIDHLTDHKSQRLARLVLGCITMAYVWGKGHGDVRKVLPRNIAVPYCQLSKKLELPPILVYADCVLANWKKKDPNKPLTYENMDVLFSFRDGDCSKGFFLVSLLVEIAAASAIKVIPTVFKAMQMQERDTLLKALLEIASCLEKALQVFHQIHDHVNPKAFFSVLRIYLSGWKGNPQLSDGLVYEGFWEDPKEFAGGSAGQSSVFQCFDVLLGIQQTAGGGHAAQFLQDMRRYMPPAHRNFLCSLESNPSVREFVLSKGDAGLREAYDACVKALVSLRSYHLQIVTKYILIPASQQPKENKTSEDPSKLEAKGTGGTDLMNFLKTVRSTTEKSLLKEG
T3 sequence (P14902 whole entry): as above

As to `CC(C)(C(O)c1cc(Cl)cc2cn[nH]c12)[C@@H]1C[C@H]2CC[C@@H](C1)N2S(C)(=O)=O` (stereo partly drawn) [Compound P-0272, 1-(5-chloro-1H-indazol-7-yl)-2-methyl-2-((1R,3s,5S)-8-(methylsulfonyl)-8-azabicyclo[3.2.1]octan-3-yl)propan-1-ol], the IC50 in test [1], in test [2], in test [3] and in test [4] was 0.0001 to 10 µM throughout.

Take `CC(C)(C)OC(=O)N1CC2CCC(C1)C2CC(O)c1cc(Cl)cc2cn[nH]c12` (centres unmarked) [Compound P-0273, tert-butyl 8-(2-(5-chloro-1H-indazol-7-yl)-2-hydroxyethyl)-3-azabicyclo[3.2.1]octane-3-carboxylate]: the IC50 in test [1], in test [2], in test [3] and in test [4] was 0.0001 to 10 µM in each case.

As to `OC(CC1C2CCC1CNC2)c1cc(Cl)cc2cn[nH]c12` (centres unmarked) [Compound P-0274, 2-(3-azabicyclo[3.2.1]octan-8-yl)-1-(5-chloro-1H-indazol-7-yl)ethan-1-ol], the IC50 in test [1] is 10 to 100 µM; in test [2], 10 to 100 µM; in test [3], above 10 µM; in test [4], above 10 µM.

Turning to `O=C(c1c2c(cc3cn[nH]c13)CC2)C(F)(F)C1CCOCC1` [Compound P-0275, 1-(5,6-dihydro-1H-cyclobuta[f]indazol-7-yl)-2,2-difluoro-2-(tetrahydro-2H-pyran-4-yl)ethan-1-one], the IC50 in test [1], in test [2], in test [3] and in test [4] was 0.0001 to 10 µM in each case.

In the case of `CCS(=O)(=O)N1CCC(C(F)(F)C(O)c2cc(Cl)cc3cn[nH]c23)CC1` (centres unmarked) [Compound P-0276, 1-(5-chloro-1H-indazol-7-yl)-2-(1-(ethylsulfonyl)piperidin-4-yl)-2,2-difluoroethan-1-ol], the IC50 in test [1], in test [2], in test [3] and in test [4] was 0.0001 to 10 µM throughout.

On to `OC(c1c2c(cc3cn[nH]c13)CC2)C1(C2CCOCC2)CC1` (centres unmarked) [Compound P-0277, (5,6-dihydro-1H-cyclobuta[f]indazol-7-yl)(1-(tetrahydro-2H-pyran-4-yl)cyclopropyl)methanol], for which the IC50 in test [1] was 0.0001 to 10 µM; in test [2] it was 0.0001 to 10 µM; in test [3], 0.0001 to 10 µM; in test [4], above 10 µM.

Consider `OC(c1c2c(cc3cn[nH]c13)CC2)C(F)(F)C1CCOCC1` (centres unmarked) [Compound P-0278, 1-(5,6-dihydro-1H-cyclobuta[f]indazol-7-yl)-2,2-difluoro-2-(tetrahydro-2H-pyran-4-yl)ethan-1-ol], for which the IC50 in test [1] is 0.0001 to 10 µM; in test [2] it was 0.0001 to 10 µM; in test [3] it was 0.0001 to 10 µM; in test [4] it was above 10 µM.

For `OC(c1c2c(cc3cn[nH]c13)CC2)C12CCC(CC1)CC2` (centres unmarked) [Compound P-0279, bicyclo[2.2.2]octan-1-yl(5,6-dihydro-1H-cyclobuta[f]indazol-7-yl)methanol], the IC50 in test [1] is 0.0001 to 10 µM; in test [2], 0.0001 to 10 µM; in test [3], 0.0001 to 10 µM; in test [4] it was above 10 µM.

As for `CC(C)(C1CCN(S(C)(=O)=O)CC1)C(O)c1c2c(cc3cn[nH]c13)CC2` (centres unmarked) [Compound P-0280, 1-(5,6-dihydro-1H-cyclobuta[f]indazol-7-yl)-2-methyl-2-(1-(methylsulfonyl)piperidin-4-yl)propan-1-ol], the IC50 is 0.0001 to 10 µM in test [1], 0.0001 to 10 µM in test [2], 0.0001 to 10 µM in test [3] and above 10 µM in test [4].

As to `CC(=O)N1CC2CCC(C1)C2CC(O)c1cc(Cl)cc2cn[nH]c12` (centres unmarked) [Compound P-0281, 1-(8-(2-(5-chloro-1H-indazol-7-yl)-2-hydroxyethyl)-3-azabicyclo[3.2.1]octan-3-yl)ethan-1-one], the IC50 in test [1], in test [2], in test [3] and in test [4] was 0.0001 to 10 µM throughout.

As for `CS(=O)(=O)N1CC2CCC(C1)C2CC(O)c1cc(Cl)cc2cn[nH]c12` (centres unmarked) [Compound P-0282, 1-(5-chloro-1H-indazol-7-yl)-2-(3-(methylsulfonyl)-3-azabicyclo[3.2.1]octan-8-yl)ethan-1-ol], the IC50 in test [1], in test [2], in test [3] and in test [4] was 0.0001 to 10 µM throughout.

In the case of `CS(=O)(=O)N1CCC(C(O)c2cc(Cl)cc3cn[nH]c23)CC1` (centres unmarked) [Compound P-0283, (5-chloro-1H-indazol-7-yl)(1-(methylsulfonyl)piperidin-4-yl)methanol], the IC50 in test [1] is 0.0001 to 10 µM; in test [2], 0.0001 to 10 µM; in test [3] it was above 10 µM; in test [4] it was 0.0001 to 10 µM.

For the compound `CC(C)(C1CCN(S(C)(=O)=O)CC1)C(O)c1c(F)ccc2cn[nH]c12` (centres unmarked) [Compound P-0284, 1-(6-fluoro-1H-indazol-7-yl)-2-methyl-2-(1-(methylsulfonyl)piperidin-4-yl)propan-1-ol], the IC50 in test [1], in test [2], in test [3] and in test [4] was 0.0001 to 10 µM in each case.

In the case of `CC(C)(C(O)c1c(F)c(Cl)cc2cn[nH]c12)[C@H]1C[C@H]2CC[C@@H](C1)N2S(C)(=O)=O` (stereo partly drawn) [Compound P-0285, 1-(5-chloro-6-fluoro-1H-indazol-7-yl)-2-methyl-2-((1R,3r,5S)-8-(methylsulfonyl)-8-azabicyclo[3.2.1]octan-3-yl)propan-1-ol], the IC50 in test [1], in test [2], in test [3] and in test [4] was 0.0001 to 10 µM each time.

With `CC1(C(O)c2cc(Cl)cc3cn[nH]c23)CCN(S(C)(=O)=O)CC1` (centres unmarked) [Compound P-0286, (5-chloro-1H-indazol-7-yl)(4-methyl-1-(methylsulfonyl)piperidin-4-yl)methanol], the IC50 in test [1], in test [2], in test [3] and in test [4] was 0.0001 to 10 µM throughout.

In the case of `CC1(C(O)c2c(Cl)c(Cl)cc3cn[nH]c23)CCCCC1` (centres unmarked) [Compound P-0287, (5,6-dichloro-1H-indazol-7-yl)(1-methylcyclohexyl)methanol], the IC50 in test [1] is 0.0001 to 10 µM; in test [2], 0.0001 to 10 µM; in test [3], 0.0001 to 10 µM; in test [4], above 10 µM.

For the compound `CS(=O)(=O)N1CCC(C(F)(F)C(O)c2c(F)c(Cl)cc3cn[nH]c23)CC1` (centres unmarked) [Compound P-0288, 1-(5-chloro-6-fluoro-1H-indazol-7-yl)-2,2-difluoro-2-(1-(methylsulfonyl)piperidin-4-yl)ethan-1-ol], the half-maximal inhibitory concentration (IC50) in test [1], in test [2], in test [3] and in test [4] was 0.0001 to 10 µM throughout.

As to `OC(c1cc(Cl)cc2cn[nH]c12)C(F)(F)C1(O)CCC1` (centres unmarked) [Compound P-0289, 1-(2-(5-chloro-1H-indazol-7-yl)-1,1-difluoro-2-hydroxyethyl)cyclobutan-1-ol], the IC50 in test [1], in test [2], in test [3] and in test [4] was 0.0001 to 10 µM each time.

For the compound `OC(c1c(F)c(Cl)cc2cn[nH]c12)C(F)(F)C1(O)CCC1` (centres unmarked) [Compound P-0290, 1-(2-(5-chloro-6-fluoro-1H-indazol-7-yl)-1,1-difluoro-2-hydroxyethyl)cyclobutan-1-ol], the IC50 in test [1], in test [2], in test [3] and in test [4] was 0.0001 to 10 µM in each case.

In the case of `CC(C)S(=O)(=O)N1CC2CCC(C1)C2CC(O)c1cc(Cl)cc2cn[nH]c12` (centres unmarked) [Compound P-0291, 1-(5-chloro-1H-indazol-7-yl)-2-(3-(isopropylsulfonyl)-3-azabicyclo[3.2.1]octan-8-yl)ethan-1-ol], the IC50 in test [1], in test [2], in test [3] and in test [4] was 0.0001 to 10 µM each time.

In the case of `CC1(C)CN(c2c3c(cc4cn[nH]c24)CC3)CCN1S(C)(=O)=O` [Compound P-0292, 7-(3,3-dimethyl-4-(methylsulfonyl)piperazin-1-yl)-5,6-dihydro-1H-cyclobuta[f]indazole], the IC50 in test [1], in test [2], in test [3] and in test [4] was 0.0001 to 10 µM throughout.

With `OC(c1c2c(cc3cn[nH]c13)CC2)C1CC2CCC1C2` (centres unmarked) [Compound P-0293, bicyclo[2.2.1]heptan-2-yl(5,6-dihydro-1H-cyclobuta[f]indazol-7-yl)methanol], the IC50 in test [1], in test [2], in test [3] and in test [4] was 0.0001 to 10 µM in each case.

As to `CC(=O)N1CCC(C(F)(F)C(O)c2cc(Cl)cc3cn[nH]c23)CC1` (centres unmarked) [Compound P-0295, 1-(4-(2-(5-chloro-1H-indazol-7-yl)-1,1-difluoro-2-hydroxyethyl)piperidin-1-yl)ethan-1-one], the IC50 in test [1], in test [2], in test [3] and in test [4] was 0.0001 to 10 µM throughout.

These data come from patent publication US10508085B2, “Compounds and methods for IDO and TDO modulation, and indications therefor” (Plexxikon Inc., priority 2016, dated 2019).
